The source of these data is ChEMBL document CHEMBL4507278 (2021).

Molecules are shown by their SMILES.

Data set [1] concerns Tyrosine-protein kinase ABL1 (Homo sapiens), P00519 [M351T]. Particulars: Compound concentration 1000.0 nM; call rule not given here.
The target of data set [2] is Serine/threonine-protein kinase/endoribonuclease IRE1 (Homo sapiens) (UniProt O75460). The following applies: Compound concentration 1000.0 nM.
Data set [3] addresses Alpha-1B adrenergic receptor (Homo sapiens) (UniProt P35368). The following applies: Compound concentration 10.0 uM.
Data set [4] concerns the target T1, 5-hydroxytryptamine receptor 1A (Homo sapiens) (UniProt P08908).
T1 sequence (whole entry): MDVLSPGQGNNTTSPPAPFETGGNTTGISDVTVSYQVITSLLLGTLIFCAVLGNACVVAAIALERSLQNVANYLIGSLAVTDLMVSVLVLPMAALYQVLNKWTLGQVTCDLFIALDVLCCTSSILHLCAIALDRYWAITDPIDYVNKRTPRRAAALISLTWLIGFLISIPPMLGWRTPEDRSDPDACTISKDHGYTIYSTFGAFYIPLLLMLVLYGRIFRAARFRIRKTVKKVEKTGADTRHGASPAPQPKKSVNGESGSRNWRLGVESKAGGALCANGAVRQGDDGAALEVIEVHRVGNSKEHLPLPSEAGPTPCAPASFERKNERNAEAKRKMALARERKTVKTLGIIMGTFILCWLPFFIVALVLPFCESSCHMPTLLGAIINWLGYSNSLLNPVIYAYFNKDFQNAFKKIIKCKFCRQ
Put plainly: 5HT1A/HU Eurofins-Panlabs selectivity data (BI). Particulars: Compound concentration 10.0 uM.

Data set [5] has as its target Adenosine receptor A2a (Homo sapiens) (UniProt P29274). Put plainly: A2A/HU Eurofins-Panlabs selectivity data (BI). The following applies: Compound concentration 10.0 uM.
The target of data set [6] is T2, Alpha-1D adrenergic receptor (Homo sapiens) (UniProt P25100).
T2 sequence (whole entry): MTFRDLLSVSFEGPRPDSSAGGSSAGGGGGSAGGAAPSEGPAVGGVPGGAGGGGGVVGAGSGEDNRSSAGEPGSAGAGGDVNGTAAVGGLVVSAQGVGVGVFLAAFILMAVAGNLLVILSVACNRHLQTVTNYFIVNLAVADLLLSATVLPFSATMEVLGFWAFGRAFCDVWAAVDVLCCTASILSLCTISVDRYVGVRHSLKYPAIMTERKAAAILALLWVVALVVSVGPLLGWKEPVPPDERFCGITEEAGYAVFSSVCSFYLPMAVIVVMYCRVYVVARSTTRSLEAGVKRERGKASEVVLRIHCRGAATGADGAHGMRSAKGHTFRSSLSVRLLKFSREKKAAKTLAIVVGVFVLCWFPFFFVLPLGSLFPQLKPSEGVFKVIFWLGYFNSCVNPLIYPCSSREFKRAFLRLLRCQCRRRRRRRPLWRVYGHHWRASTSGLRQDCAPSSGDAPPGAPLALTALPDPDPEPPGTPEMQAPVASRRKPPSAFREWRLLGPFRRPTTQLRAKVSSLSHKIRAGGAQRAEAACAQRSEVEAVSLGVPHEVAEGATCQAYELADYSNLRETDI
Put plainly: ALPHA1D/H Eurofins-Panlabs selectivity data (BI). The following applies: Compound concentration 10.0 uM.

Data set [7] addresses B1 bradykinin receptor (Homo sapiens) (UniProt P46663). Put plainly: B1/H Eurofins-Panlabs selectivity data (BI). The following applies: Compound concentration 10.0 uM.
Data set [8] deals with Beta-2 adrenergic receptor (Homo sapiens) (UniProt P07550). Kind of data set: BETA2/HU Eurofins-Panlabs selectivity data (BI). The following applies: Compound concentration 10.0 uM.
Chain of Beta-2 adrenergic receptor (Homo sapiens) (P07550 whole entry, looked up): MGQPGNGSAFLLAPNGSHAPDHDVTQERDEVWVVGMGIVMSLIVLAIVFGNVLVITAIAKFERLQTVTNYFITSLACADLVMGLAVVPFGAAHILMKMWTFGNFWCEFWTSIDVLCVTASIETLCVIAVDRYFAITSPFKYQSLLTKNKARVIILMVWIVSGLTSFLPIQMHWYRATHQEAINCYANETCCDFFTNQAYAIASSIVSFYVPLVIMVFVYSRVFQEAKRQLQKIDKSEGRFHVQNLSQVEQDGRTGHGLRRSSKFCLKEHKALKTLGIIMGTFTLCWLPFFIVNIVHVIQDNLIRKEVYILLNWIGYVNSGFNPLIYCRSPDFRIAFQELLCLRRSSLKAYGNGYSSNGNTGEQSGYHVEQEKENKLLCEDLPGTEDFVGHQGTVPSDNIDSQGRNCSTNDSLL
Data set [9] concerns the target Voltage-dependent L-type calcium channel subunit alpha-1C (DHP site) (Rattus norvegicus, UniProt P22002). Kind of data set: CA+/DHPSI/RA Eurofins-Panlabs selectivity data (BI). Particulars: compound concentration 10 uM, read-out: % Ctrl.
The target in data set [10] is Voltage-dependent N-type calcium channel subunit alpha-1B (Rattus norvegicus) (UniProt Q02294). Put plainly: CA+/N/RA Eurofins-Panlabs selectivity data (BI). Particulars: Compound concentration 10.0 uM.
The target of data set [11] is Cysteinyl leukotriene receptor 1 (Homo sapiens) (UniProt Q9Y271). Kind of data set: CYSLT1_HS Eurofins-Panlabs selectivity data (BI). The following applies: Compound concentration 10.0 uM.
Chain of Cysteinyl leukotriene receptor 1 (Homo sapiens) (Q9Y271 whole entry): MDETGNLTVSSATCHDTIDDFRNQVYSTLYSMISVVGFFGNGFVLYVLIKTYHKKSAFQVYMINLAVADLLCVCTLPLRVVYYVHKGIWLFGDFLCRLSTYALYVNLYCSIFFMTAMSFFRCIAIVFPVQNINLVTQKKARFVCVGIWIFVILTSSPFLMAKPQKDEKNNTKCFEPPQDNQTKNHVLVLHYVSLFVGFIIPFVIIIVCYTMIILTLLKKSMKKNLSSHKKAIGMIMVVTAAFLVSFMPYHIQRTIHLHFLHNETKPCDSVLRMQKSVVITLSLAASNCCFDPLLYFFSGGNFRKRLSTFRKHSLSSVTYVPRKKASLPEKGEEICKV
In data set [12] the target is D(3) dopamine receptor (Homo sapiens) (UniProt P35462). Kind of data set: D3/HU Eurofins-Panlabs selectivity data (BI). Particulars: Compound concentration 10.0 uM.
Chain of D(3) dopamine receptor (Homo sapiens) (P35462 whole entry): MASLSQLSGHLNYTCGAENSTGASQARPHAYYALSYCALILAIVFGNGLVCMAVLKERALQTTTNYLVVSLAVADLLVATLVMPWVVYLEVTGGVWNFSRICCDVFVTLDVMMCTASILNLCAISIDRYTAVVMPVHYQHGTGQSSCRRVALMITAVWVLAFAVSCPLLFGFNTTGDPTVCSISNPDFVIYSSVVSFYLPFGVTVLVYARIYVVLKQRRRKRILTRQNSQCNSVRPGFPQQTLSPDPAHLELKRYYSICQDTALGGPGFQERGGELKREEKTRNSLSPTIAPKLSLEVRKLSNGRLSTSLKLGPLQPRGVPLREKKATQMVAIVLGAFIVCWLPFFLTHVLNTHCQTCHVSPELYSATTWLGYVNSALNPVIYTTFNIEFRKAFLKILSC
Data set [13] deals with T3, D(4) dopamine receptor (Homo sapiens) (UniProt P21917).
T3 sequence (whole entry): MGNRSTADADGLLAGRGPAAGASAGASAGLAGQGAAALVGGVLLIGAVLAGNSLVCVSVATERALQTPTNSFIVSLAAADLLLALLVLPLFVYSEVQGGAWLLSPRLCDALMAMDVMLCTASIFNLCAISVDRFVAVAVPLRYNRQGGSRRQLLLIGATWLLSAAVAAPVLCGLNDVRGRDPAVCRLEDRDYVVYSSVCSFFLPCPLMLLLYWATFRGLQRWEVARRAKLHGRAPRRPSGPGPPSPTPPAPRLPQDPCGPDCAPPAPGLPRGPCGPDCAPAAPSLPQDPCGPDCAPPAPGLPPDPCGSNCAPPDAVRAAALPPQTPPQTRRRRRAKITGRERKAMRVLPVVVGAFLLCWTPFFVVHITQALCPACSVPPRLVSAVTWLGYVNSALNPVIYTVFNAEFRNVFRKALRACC
Put plainly: D4.2/H Eurofins-Panlabs selectivity data (BI). The following applies: Compound concentration 10.0 uM.

Data set [14] has as its target Epidermal growth factor receptor (Homo sapiens) (UniProt P00533). Put plainly: EGF/HU Eurofins-Panlabs selectivity data (BI). Particulars: Compound concentration 10.0 uM.
The target in data set [15] is Estrogen receptor (Homo sapiens) (UniProt P03372). Kind of data set: ERALPHA/H Eurofins-Panlabs selectivity data (BI). Particulars: Compound concentration 10.0 uM.
Chain of Estrogen receptor (Homo sapiens) (P03372 whole entry): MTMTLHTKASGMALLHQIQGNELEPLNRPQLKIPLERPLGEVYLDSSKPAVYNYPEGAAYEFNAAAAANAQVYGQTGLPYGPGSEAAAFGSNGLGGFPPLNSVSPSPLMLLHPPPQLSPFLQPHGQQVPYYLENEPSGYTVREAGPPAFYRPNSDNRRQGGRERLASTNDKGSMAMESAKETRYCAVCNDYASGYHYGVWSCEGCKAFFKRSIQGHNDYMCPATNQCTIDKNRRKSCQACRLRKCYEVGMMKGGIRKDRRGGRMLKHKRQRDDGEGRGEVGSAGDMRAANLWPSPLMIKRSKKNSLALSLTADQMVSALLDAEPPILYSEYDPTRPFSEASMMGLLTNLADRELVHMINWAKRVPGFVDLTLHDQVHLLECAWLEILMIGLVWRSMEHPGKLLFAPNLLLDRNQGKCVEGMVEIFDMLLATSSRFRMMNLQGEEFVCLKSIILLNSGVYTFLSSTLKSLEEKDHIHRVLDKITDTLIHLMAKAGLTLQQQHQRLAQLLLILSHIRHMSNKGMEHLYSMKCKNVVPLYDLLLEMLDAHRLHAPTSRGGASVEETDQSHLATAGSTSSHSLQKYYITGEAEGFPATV
The target in data set [16] is Gamma-aminobutyric acid receptor subunit alpha-1 (Rattus norvegicus) (UniProt P62813). Kind of data set: GABAA MUSCIMOL CENT Eurofins-Panlabs selectivity data (BI). The following applies: Compound concentration 10.0 uM.
Chain of Gamma-aminobutyric acid receptor subunit alpha-1 (Rattus norvegicus) (P62813 whole entry): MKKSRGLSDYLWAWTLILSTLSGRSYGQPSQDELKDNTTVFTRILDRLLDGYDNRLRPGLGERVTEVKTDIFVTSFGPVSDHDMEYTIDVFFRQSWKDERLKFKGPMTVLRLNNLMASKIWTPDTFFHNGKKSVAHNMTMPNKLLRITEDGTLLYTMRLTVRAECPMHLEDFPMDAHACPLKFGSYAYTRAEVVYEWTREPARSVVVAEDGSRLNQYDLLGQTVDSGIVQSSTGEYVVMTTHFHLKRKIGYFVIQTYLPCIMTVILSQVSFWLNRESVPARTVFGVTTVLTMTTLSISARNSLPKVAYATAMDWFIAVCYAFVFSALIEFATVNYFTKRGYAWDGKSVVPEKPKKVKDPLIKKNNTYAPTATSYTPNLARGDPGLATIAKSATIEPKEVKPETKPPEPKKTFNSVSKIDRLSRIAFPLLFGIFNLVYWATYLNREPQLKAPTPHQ
Data set [17] concerns the target Glucocorticoid receptor (Homo sapiens) (UniProt P04150). Put plainly: GLUCOCORTICO Eurofins-Panlabs selectivity data (BI). Particulars: Compound concentration 10.0 uM.
The target in data set [18] is Nicotinic acetylcholine receptor alpha-1/beta-1 (Homo sapiens) (UniProt P02708+P11230). Put plainly: NACH_BS_N/H Eurofins-Panlabs selectivity data (BI). Particulars: Compound concentration 10.0 uM. The data set is classed as protein-complex assay.
For data set [19], the target named is Glutamate receptor ionotropic, NMDA 2A (Rattus norvegicus) (UniProt Q00959). Kind of data set: NMDAPHSI/R Eurofins-Panlabs selectivity data (BI). Particulars: Compound concentration 10.0 uM.
Chain of Glutamate receptor ionotropic, NMDA 2A (Rattus norvegicus) (Q00959 23-1464 limits assumed): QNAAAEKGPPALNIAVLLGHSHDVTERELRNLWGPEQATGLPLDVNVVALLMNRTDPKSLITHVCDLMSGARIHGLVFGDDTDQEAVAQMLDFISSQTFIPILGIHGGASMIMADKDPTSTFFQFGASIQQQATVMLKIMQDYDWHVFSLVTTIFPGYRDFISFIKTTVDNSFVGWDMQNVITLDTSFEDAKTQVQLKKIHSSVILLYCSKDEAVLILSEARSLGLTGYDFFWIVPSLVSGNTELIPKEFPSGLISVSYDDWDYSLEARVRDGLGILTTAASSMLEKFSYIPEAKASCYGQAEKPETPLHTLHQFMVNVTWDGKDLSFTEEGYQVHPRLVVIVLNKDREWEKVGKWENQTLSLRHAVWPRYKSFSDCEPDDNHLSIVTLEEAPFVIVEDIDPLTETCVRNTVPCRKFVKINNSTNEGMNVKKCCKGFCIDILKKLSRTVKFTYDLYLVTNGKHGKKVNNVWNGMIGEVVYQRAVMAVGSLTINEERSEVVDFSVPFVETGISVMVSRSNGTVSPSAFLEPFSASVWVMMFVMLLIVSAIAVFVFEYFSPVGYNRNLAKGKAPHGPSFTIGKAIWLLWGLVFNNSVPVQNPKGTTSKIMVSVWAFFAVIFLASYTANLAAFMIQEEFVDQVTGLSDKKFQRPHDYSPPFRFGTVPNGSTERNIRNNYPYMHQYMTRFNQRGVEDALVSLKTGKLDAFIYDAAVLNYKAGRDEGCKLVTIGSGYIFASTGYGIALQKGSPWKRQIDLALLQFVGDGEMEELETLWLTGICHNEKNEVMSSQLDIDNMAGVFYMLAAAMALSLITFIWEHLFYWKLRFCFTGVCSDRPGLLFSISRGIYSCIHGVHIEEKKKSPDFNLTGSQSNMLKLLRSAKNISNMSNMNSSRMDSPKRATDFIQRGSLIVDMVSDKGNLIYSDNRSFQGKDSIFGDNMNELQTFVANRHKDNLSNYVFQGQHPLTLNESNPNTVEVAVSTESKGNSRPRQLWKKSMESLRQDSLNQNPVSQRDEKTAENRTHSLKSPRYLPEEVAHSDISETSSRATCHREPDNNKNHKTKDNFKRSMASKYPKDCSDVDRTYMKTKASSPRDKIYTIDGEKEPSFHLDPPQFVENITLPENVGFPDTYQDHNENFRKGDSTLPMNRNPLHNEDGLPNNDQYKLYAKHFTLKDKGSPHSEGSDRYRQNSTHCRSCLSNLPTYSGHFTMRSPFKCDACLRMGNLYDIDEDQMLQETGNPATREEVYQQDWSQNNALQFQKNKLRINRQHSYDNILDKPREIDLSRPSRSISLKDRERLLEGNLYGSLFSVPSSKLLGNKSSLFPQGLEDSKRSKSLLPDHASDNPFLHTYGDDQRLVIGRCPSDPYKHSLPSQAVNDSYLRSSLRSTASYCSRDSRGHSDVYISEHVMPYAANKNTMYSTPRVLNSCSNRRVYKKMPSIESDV
The target in data set [20] is Protein kinase C alpha type (Mus musculus) (UniProt P20444). Put plainly: PHORBOLE/M Eurofins-Panlabs selectivity data (BI). Particulars: Compound concentration 10.0 uM.
In data set [21] the target is Sigma non-opioid intracellular receptor 1 (Homo sapiens) (UniProt Q99720). Kind of data set: SIGMA1/HU Eurofins-Panlabs selectivity data (BI). The following applies: Compound concentration 10.0 uM.
Chain of Sigma non-opioid intracellular receptor 1 (Homo sapiens) (Q99720 whole entry): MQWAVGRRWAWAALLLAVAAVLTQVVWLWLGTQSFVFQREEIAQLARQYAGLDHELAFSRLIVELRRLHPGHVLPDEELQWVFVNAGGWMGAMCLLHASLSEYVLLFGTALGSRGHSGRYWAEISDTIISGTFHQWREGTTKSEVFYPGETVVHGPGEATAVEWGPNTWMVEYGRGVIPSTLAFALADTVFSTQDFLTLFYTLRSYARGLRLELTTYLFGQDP
For data set [22], the target named is Androgen receptor (Rattus norvegicus) (UniProt P15207). Kind of data set: TESTOST/RA Eurofins-Panlabs selectivity data (BI). The following applies: Compound concentration 10.0 uM.
Data set [23] deals with D(3) dopamine receptor (Homo sapiens) (UniProt P35462). The following applies: Compound concentration 10.0 uM.
For data set [24], the target named is Muscarinic acetylcholine receptor M3 (Homo sapiens) (UniProt P20309). Particulars: Compound concentration 10.0 uM.
Chain of Muscarinic acetylcholine receptor M3 (Homo sapiens) (P20309 whole entry, looked up): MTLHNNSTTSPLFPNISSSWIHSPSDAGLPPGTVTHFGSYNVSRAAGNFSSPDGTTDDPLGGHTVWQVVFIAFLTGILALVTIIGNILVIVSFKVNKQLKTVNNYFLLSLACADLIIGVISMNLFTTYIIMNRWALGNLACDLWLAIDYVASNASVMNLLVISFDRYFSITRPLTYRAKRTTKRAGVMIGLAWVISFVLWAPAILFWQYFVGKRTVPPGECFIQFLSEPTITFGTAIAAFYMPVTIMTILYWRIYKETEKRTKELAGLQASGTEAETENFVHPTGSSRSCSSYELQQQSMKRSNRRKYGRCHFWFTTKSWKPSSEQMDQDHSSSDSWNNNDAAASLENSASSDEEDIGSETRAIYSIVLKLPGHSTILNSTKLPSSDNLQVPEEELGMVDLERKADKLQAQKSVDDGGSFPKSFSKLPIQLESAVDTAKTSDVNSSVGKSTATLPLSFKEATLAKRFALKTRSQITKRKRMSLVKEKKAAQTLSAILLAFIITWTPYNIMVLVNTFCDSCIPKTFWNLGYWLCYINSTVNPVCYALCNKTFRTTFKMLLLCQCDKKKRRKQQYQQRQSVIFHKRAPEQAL
Data set [25] has as its target Alpha-1B adrenergic receptor (Rattus norvegicus) (UniProt P15823). Put plainly: ALPHA1B/R Eurofins-Panlabs selectivity data (BI). Particulars: Compound concentration 10.0 uM.

Chain of Alpha-1B adrenergic receptor (Rattus norvegicus) (P15823 whole entry, looked up): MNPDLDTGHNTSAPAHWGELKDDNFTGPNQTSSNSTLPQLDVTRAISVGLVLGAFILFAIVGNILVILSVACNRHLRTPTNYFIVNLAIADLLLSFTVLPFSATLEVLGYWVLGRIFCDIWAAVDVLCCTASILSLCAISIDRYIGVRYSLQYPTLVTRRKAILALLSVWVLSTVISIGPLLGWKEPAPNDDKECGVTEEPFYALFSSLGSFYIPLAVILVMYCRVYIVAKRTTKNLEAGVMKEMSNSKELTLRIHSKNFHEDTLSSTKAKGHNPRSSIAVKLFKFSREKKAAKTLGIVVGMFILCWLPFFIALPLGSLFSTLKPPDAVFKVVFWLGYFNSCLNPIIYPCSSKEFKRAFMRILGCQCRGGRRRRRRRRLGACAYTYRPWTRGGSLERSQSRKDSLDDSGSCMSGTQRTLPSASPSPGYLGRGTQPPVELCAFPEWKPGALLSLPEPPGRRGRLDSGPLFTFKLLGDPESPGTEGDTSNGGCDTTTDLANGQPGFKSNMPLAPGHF

On to `CS(=O)(=O)NCC[C@H](NC(=O)c1cncc2c1cnn2-c1ccc(F)cc1)c1ccnc(S(C)(=O)=O)c1` [BI 9307], for which the residual activity in [1] and in [2] was 100% each time. In addition, the inhibition in [3] is 15.8%.

For the compound `CS(=O)(=O)c1cc(C2(NC(=O)c3cncc4c3cnn4-c3ccc(F)cc3)CC2)ccn1` [BI 639667], the residual activity in [4] is 89%; in [5], 31%; in data set [6] it was 82%; in data set [7] it was 99%; in data set [8], 96%; in data set [10], 90%. For the same compound, the residual activity in data set [11] was 87%; in data set [12], 105%; in [13], 94%; in data set [14], 55%; in data set [15], 100%; in data set [16], 98%. Besides, the residual activity was 96% in data set [17]; 100% in data set [18]; 93% in data set [19]; 93% in data set [20]; 105% in data set [21]; 91% in data set [22]. Besides, in data set [25], the residual activity was 93%. Further, the activity at 10 µM in data set [9] is 71% (not active). In addition, the inhibition in data set [23] is 17.6%; in [24], 22%.
